System: Naja Naja Snake Venom PLA2 enzyme
Experiment: In vitro fluorometric PLA2 inhibition assay
Type: biochemical
Conditions: 0.1 mg/ml
Protocol: The reaction of the PLA2 enzyme and the PLA2 enzyme substrate 2-(6-(7-nitrobenz-2-oxa-1,3diazol-4-yl)amino) hexanoyl-1-hexadecanoyl-sn-glycero-3-phosphocholine (NHGP) yields a product, which can be detected using a fluorometer. […] indicates inhibition of the PLA2 enzyme.
Compound XXII and Compound XXV were solubilized and diluted in D-PBS, and tested at final concentrations of […], 0.125, 0.25, 0.5 and 1 mg/ml. […] 1 mM NHGP was diluted in D-PBS, for a final concentration of 1 μM. The positive control, Mefenamic Acid (Sigma, M-4267), was tested at a final concentration of 0.1 mg/ml. The PLA2 enzyme is derived from the Naja Naja Snake Venom (Sigma, P6139) and tested at a final concentration of 5 Units/ml. The reaction was carried out in 200 μl solution and initiated by addition of substrate. Fluorescence was read immediately and then every minute for 30 minutes for a total of 30 readings. The fluorometer was set as follows: Excitation 450/50; Emission 530/25; Gain 50.

`Cc1cccc(Nc2ccccc2C(=O)O)c1C` [mefenamic acid, Mefenamic Acid] was tested, and the “inhibition of the PLA2 enzyme” value was 41%.

— patent US20080183282A1, “Use of lipid conjugates for the coating of stents and catheters” (priority 2006, published 2008)
